Source: paper PMC8707700, “Ru(III) Complexes with Lonidamine-Modified Ligands” (International Journal of Molecular Sciences, 2021)

Experiment: Lipophilicity, shake-flask method water/n-octanol
Format: physicochemical
Details: UV-vis, mean ± SD
Experimental: The lipophilicity of complexes 15–20 was studied using a standard shake-flask method in a mixture of water/n-octanol. For the quantification of compounds in the water phase, UV-vis spectrophotometry was used. […] Among other complexes, as expected, 20 was the most lipophilic (Table 1).
N-octanol was saturated with water and with water saturated with n-octanol; mixture400 mL of n-octanol (water) and 100 mL of water (n-octanol) was stirred for 24 h; and then fractions were separated. The sample of the complex was dissolved in n-octanol and a series of solutions in octanol (300, 250, 3 × 200, 150, 100, and 50 μM) was prepared. Absorption spectra were recorded and the calibration curve for maximum absorption was plotted. From 200 μM solutions, the mixtures with water were prepared (1:1, 1:2, 2:1 v/v) and shaken for 15 min. The organic phase was separated by centrifugation. The concentration of the complex in n-octanol was determined from the calibration curve and lipophilicity (logP) was calculated as log P = log [(C0–Caq)/Caq].

## Na[trans-Ru(DMSO)(C30H37Cl2N5O)Cl4] [Compound 20]
  Log P: 1.3 ± 0.2
